Laboratory results as given in patent publication US20230127906A1, “FORMULATIONS FOR EXTENDING LIFESPAN AND HEALTHSPAN” (Buck Institute for Research on Aging, priority 2017, published 2023).
“Also recorded” adds a separate entry of the source.

How the values were obtained:
IMR-90 fibroblasts = assay: Cell senescence assay, irradiated cells, β-galactosidase; format: cell-based; settings: cells pre-treated prior to irradiation, FIG. 12
Description: To measure the effects of Ca-AKG on cell senescence, IMR-90 fibroblasts in culture were exposed to gamma-irradiation either after pretreatment with AKG or prior to (post) treatment with Ca-AKG. Cell senescence was measured by β-Galactosidase fluorescence.

inflammatory cytokines = assay: Inflammatory cytokine levels in aged mice; format: in vivo; settings: three month treatment starting at 18 months of age, animals at 21 months, Cohort 2, FIG. 24
C57BL/6J mice = assay: 31-item clinical frailty index in aged mice (total score and individual metrics); format: in vivo; settings: for alopecia scores (hair loss): four month treatment starting at 18 months of age, FIG. 35; for piloerection: four month treatment, FIG. 37
Text: C57BL/6J mice of both sexes are aged in group caging in an approved animal facility. Mice are maintained on a 12-hour light/dark cycle, with free access to food and water. In general, initiation of interventions occurs in mice after 12 months of age and is maintained throughout the lifespan of the mice. However, short term or periodic interventional strategies may also be tested.
Mice are randomly assigned to either treatment or control group, and administered compositions of active agents or placebo (control) in food for a sufficient treatment period to observe effects on frailty characteristics.
Mice are periodically evaluated on the 31-item clinical frailty index previously described herein. This was first reported by Whitehead et al. (Journals of Gerontology: BIOLOGICAL SCIENCES, 69:621-632; 2014). This has been used in studies recently as a valuable metric of mouse frailty that involves non-invasive scoring ideal for longitudinal studies and corresponds well with the onset of human frailty (Rockwood et al., Scientific Reports, 7, 43068, 2017).
The 31 point metric for assessment of animal frailty is included in the following table:
For all individual frailty metrics shown, a similar strategy was used to assess frailty score. Using a double blind method, scorers were asked to assess the relative score of each animal either as 0 (healthy), 0.5 (moderately unhealthy) and 1 (unhealthy). For total frailty, all 31 metrics are added and divided by 31. For cohort 2, we report the total frailty score simply as the sum of all 31 metrics without normalization.
Loss of fur color and appearance of grey hair is used interchangeably.
Alopecia or hair loss is used interchangeably.
Kyphosis is a measure of exaggerated outward curvature of the lower cervical/thoracic vertebral column, and can reflect either loss of bone density or increased muscle weakness.
Tremors are a measure of involuntary shaking at rest or during movement. Dermatitis is a routine occurrence in aging C57/B16 mice.
Piloerection is defined as involuntary hair bristling and can be thought of similarly to “goose bumps.” This increases with age and can be triggered by coldness, reflecting an inability of the mice to maintain body temperature.
Mice are randomly assigned to either treatment or control group, and administered compositions comprising Ca-AKG or placebo in food for a sufficient treatment period to observe effects on frailty characteristics.
Mice are periodically evaluated on the 31-item clinical frailty index previously described herein.

SMILES	cell senescence, senescence-associated β-galactosidase (beta gal) (IMR-90 fibroblasts)	levels of inflammatory cytokines (inflammatory cytokines)	alopecia scores (hair loss) (C57BL/6J mice; female mice)	piloerection (C57BL/6J mice; female mice)	grey hair (C57BL/6J mice; female mice, measured at 23 months of life, Cohort 1, FIG. 18)	hair loss (C57BL/6J mice; relative to control mice, Cohort 1, FIG. 20, 21)	kyphosis (C57BL/6J mice; relative to control mice, Cohort 1, FIG. 22)	tremors (C57BL/6J mice; relative to control mice, Cohort 1, FIG. 23)	coat graying / grey hair (C57BL/6J mice; vs placebo/control mice, Cohort 1, FIG. 11, 19, 20)	fur color (coat color) (C57BL/6J mice; female mice, four months treatment starting at 18 months of age, FIG. 36)	frailty scores (frailty index) (C57BL/6J mice; female mice, two months of treatment, Cohort 2, FIG. 10A)	kyphosis index (C57BL/6J mice; male and female mice combined, two months treatment starting at 18 months of age, FIG. 34)	frailty scores (frailty index) (C57BL/6J mice; male mice, 2 months of treatment, Cohort 2, FIG. 10C)
O=C([O-])CCC(=O)C(=O)[O-].[Ca+2] [Ca-AKG, calcium α-ketoglutarate]	protected cells from irradiation-induced senescence; also recorded: decreases relative to control	prevents, or in some cases even reverses, the increase in levels of inflammatory cytokines	neither Ca-AKG nor RP had significant effects on their own	Neither compound alone had an effect	reduction in grey hair	reduced hair loss; also recorded: reduction in hair loss	reduction in kyphosis	reduction in tremors	dramatically reduced; also recorded: less grey hair than the control mouse; also recorded: less gray hair				
CCCCCCCCCCCCCCCC(=O)OC/C=C(C)/C=C/C=C(C)/C=C/C1=C(C)CCCC1(C)C [RP, retinyl palmitate]			neither Ca-AKG nor RP had significant effects on their own	Neither compound alone had an effect									
C=C1CC[C@H](O)C/C1=C/C=C1\CCC[C@]2(C)[C@@H]([C@H](C)CCCC(C)C)CC[C@@H]12 [vitamin D3]			sufficient to reduce alopecia							younger coat color	lower frailty	reduce the kyphosis index significantly	no significant reduction in frailty
